Calls of active or inactive are those of the source. No cut-off for these calls is given here.
How the values were obtained:
[1] = system: RAW264.7; test: Cytotoxicity against mouse RAW264.7 cells assessed as reduction in cell viability at 100 uM measured after 24 hrs by CCK8 assay; type: toxicity, cell-based; conditions: raw264.7, 24 h
[2] = system: RAW264.7; test: Antiinflammatory activity in mouse RAW264.7 cells assessed as reduction in LPS-induced NO production pre-incubated for 2 hrs followed by LPS stimulation measured after 24 hrs by Griess method; type: functional, cell-based
[3] = system: RAW264.7; test: Antiinflammatory activity in mouse RAW264.7 cells assessed as reduction in LPS-induced IL-6 production pre-incubated for 2 hrs followed by LPS stimulation measured after 24 hrs by Griess method; type: functional, cell-based; conditions: dose 5-40 µM, time 26.0 hrs
[4] = system: RAW264.7; test: Antiinflammatory activity against mouse RAW264.7 cells assessed as inhibition of LPS-induced iNOS expression at 10 uM pre-incubated for 2 hrs followed by LPS stimulation measured after 24 hrs by western blot analysis; type: functional, cell-based; conditions: time 26.0 hrs
[5] = system: RAW264.7; test: Antiinflammatory activity in mouse RAW264.7 cells assessed as reduction in LPS-induced TNF-alpha production pre-incubated for 2 hrs followed by LPS stimulation measured after 24 hrs by Griess method; type: functional, cell-based; conditions: dose 5-40 µM, time 26.0 hrs
[6] = system: RAW264.7; test: Antiinflammatory activity against mouse RAW264.7 cells assessed as inhibition of LPS-induced NF-kappaB/p65 expression at 10 to 40 uM pre-incubated for 2 hrs followed by LPS stimulation measured after 24 hrs by western blot analysis; type: functional, cell-based; conditions: dose 10-40 µM, time 26.0 hrs

Row | SMILES | Activity [1] | also measured
1 | CC1=C2C=C3CC[C@@H]4C(C)(C)C(=O)C(O)=C[C@@]4(C)[C@@H]3C[C@H]2OC1=O | Non-Toxic | 
2 | CC1=C2C=C3CC[C@@H]4C(C)(C)[C@H](O)[C@H](O)C[C@@]4(C)[C@@H]3C[C@H]2OC1=O | Non-Toxic | 
3 | CC1=C2C=C3CC[C@@H]4C(C)(C)[C@@H](O)CC[C@@]4(C)[C@]3(O)C[C@H]2OC1=O | Non-Toxic | 
4 | CC1=C2C=C3CC[C@@H]4C(C)(C)[C@H](O)CC[C@@]4(C)[C@@H]3C[C@H]2OC1=O [HELIOSCOPINOLIDE A] | Non-Toxic | 
5 | CC1=C2C=C3CC[C@@H]4C(C)(C)C(=O)[C@H](O)[C@@]4(C)[C@@H]3C[C@H]2OC1=O | Non-Toxic | IC50 [2]: 33 µM; Activity [3]: Dose-Dependent Effect; Activity [4]: Active; Activity [5]: Dose-Dependent Effect; Activity [6]: Active
6 | CC1=C2C=C3CC[C@@H]4C(C)(C)OC(=O)[C@@]4(C)[C@@H]3C[C@H]2OC1=O | Non-Toxic | 
7 | CC1=C2C=C3CC[C@@H]4C(C)(C)OC(=O)C[C@@]4(C)[C@@H]3C[C@H]2OC1=O | Non-Toxic | 
8 | CC1=C2C=C3CC[C@@H]4C(C)(C)[C@@H](O)CC[C@@]4(C)[C@@H]3C[C@H]2OC1=O [HELIOSCOPINOLIDE B] | Non-Toxic | 
9 | CC1=C2C(=O)C3=C(C[C@H]2OC1=O)[C@]1(C)CC[C@@H](O)C(C)(CO)[C@H]1CC3 (some centres not stated) | Non-Toxic | 
10 | CC1=C2C=C3CC[C@@H]4C(C)(C)C(=O)CC[C@@]4(C)[C@]3(O)C[C@H]2OC1=O | Non-Toxic | 
11 | CC1=C2C=C3CC[C@@H]4C(C)(C)[C@H](O)C(=O)C[C@@]4(C)[C@@H]3C[C@H]2OC1=O | Non-Toxic | IC50 [2]: 33.8 µM

— ChEMBL document CHEMBL5252599, “Euphohelides A-C, ent-Abietane-Type Norditerpene Lactones from Euphorbia helioscopia and Their Anti-Inflammatory Activities” (J Nat Prod, 2023)
